Data on 27 molecules can be found in US10414760B2, “Cytochrome P450 inhibitors and uses thereof” (ANGION BIOMEDICA CORP., priority 2016, dated 2019).

In general, IC50 refers to the concentration at which inhibition is half-maximal. Read a high IC50 as weaker potency in that assay.

For this assay, the target named is T1, CYP26 (Mus musculus, UniProt O55127).
T1 construct: tissue Xenotech; host or cells: liver microsomes of ATRA-treated mice
T1 sequence (O55127 1-497): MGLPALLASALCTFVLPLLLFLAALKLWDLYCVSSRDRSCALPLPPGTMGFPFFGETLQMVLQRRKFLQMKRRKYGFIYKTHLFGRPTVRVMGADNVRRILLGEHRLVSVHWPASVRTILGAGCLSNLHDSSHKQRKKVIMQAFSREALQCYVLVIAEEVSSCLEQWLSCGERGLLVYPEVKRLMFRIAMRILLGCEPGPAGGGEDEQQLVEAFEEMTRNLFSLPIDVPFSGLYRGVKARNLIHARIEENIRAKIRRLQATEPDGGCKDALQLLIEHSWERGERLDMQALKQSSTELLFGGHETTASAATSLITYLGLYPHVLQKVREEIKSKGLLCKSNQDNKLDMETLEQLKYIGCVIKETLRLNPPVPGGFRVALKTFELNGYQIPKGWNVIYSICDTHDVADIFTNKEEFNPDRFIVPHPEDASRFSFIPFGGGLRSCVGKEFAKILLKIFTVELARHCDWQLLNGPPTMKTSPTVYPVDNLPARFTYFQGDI
The assay can be described thus: CYP26 inhibition: substrate depletion assay for ATRA metabolism in mouse microsomes. The assay is classed as biochemical. How it is done: Serum Testosterone and PSA and Tumor Testosterone Analysis. Tumor tissue obtained from mice will be homogenized in phosphate buffer (pH 7.4, 0.1 M) and homogenates centrifuged at 2000 g for 20 min. Testosterone concentrations in the serum and in the clear tissue homogenate supernatant will be determined with the ELISA kit from R&D Systems (Catalog # KGR010). Serum PSA concentrations will be measured using a PSA ELISA kit with a serum dilution according to the manufacturers instructions. • c. Breast cancer. To test the efficacy of compounds embodied herein against breast cancer, nude mice carrying human breast cancer lines that are estrogen receptor and Aromatase positive will be used. Cells will be grown in vitro and 2 million will be inoculated in Matrigel (50:50 volume ratio of cells to Matrigel). Cells will be distributed by s.c. injection at the right and left flanks or at the orthotopic sitest in 6 to 8 week old athymic nude mice (BALB/c strain) or severe combined immunodeficient mice under anesthesia. Animals will be treated with compound for 4 weeks, at which point animals will be sacrificed and collect blood samples and tumor tissue for the determination of serum and tumor estrogen levels. Tumors will be excised and a portion will be fixed in formalin for subsequent histochemical and immuno-histochemical analysis. The remainder will be snap frozen in liquid nitrogen and stored at −80° C. • 12. CYP26 inhibition activity. A substrate depletion assay for ATRA metabolism in mouse microsomes is used. […] The assay is run in a 100 μL reaction volume and stopped with an equal volume of methanol. […] CYP17 inhibition assay: In vitro assays for CYP17 17α-hydroxylase and C17,20-lyase activity, assays using rat and dog testis microsomes and ELISA kits from commercial vendors for the detection of formed products are employed. Incubation of rat testis microsomes with the substrate progesterone (P4) results, through the CYP17 17α-hydroxylase and C17,20-lyase activities, in a marked production of androstenedione (AD) in a time and enzyme-concentration dependent manner. […] In another control, microsomes isolated from rat livers, which are known to express very little or no CYP17, are shown to be devoid of this activity. Assays are also used that determine the activity of 17α-hydroxylase activity using P4 as a substrate and detecting HOP4 as a product (using dog testis microsomes) and the activity of C17,20-lyase by using HOP4 as a substrate and AD as a product (rat testis microsomes). • 14. CYP19 inhibition assay: For in vitro assays of CYP19 aromatase activity, commercially available CYP19 enzyme preparations (e.g. BD Gentest Supersomes Catalog #456260) and assay kits (e.g. BD Gentest Catalog #459520) are employed according to the manufacturers instructions.
CYP26 inhibition. […] The assay was run in a 100 μL reaction volume and stopped with an equal volume of methanol. […] Other compounds of formula (I) are similarly potent, for example with an IC50 of 1.6 nM.

For the molecule `CCC(C(c1ccc2nc(-c3cc(F)cc(C(=O)O)c3)sc2c1)n1ccnc1)N(C)C` (stereo not drawn) [Example 68, 3-(6-(2-(Dimethylamino)-1-(1H-imidazol-1-yl)butyl)benzo[d]thiazol-2-yl)-5-fluorobenzoicacid], the half-inhibitory concentration (IC50) is below 1000 nM.

Molecule `CCC(C(c1ccc2nc(-c3cccc(C(=O)O)c3)sc2c1)n1ccnc1)N(C)C` (stereo not drawn) [Example 56, 3-(6-(2-(Dimethylamino)-1-(1H-imidazol-1-yl)butyl)benzo[d]thiazol-2-yl)benzoic acid] showed an IC50 below 1000 nM. As for `CCC(CC)C(c1ccc2nc(-c3ccc(Cl)c(C(=O)O)c3)sc2c1)n1ccnc1` (stereo not drawn) [Example 74, 2-Chloro-5-(6-(2-ethyl-1-(1H-imidazol-1-yl)butyl)benzo[d]thiazol-2-yl)benzoic acid], the figure is below 1000 nM; as for `CCC(C(c1ccc2nc(NC(=O)C3(C(=O)O)CCC3)sc2c1)n1ccnc1)N(C)C` (stereo not drawn) [Example 43, 1-((6-(2-(Dimethylamino)-1-(1H-imidazol-1-yl)butyl)benzo[d]thiazol-2-yl)carbamoyl)cyclobutanecarboxylic acid], below 1000 nM; as for `CCC(C(c1ccc2nc(NCc3cccc(C(=O)O)c3)sc2c1)n1ccnc1)N(C)C` (stereo not drawn) [Example 7, 3-(((6-(2-(Dimethylamino)-1-(1H-imidazol-1-yl)butyl)benzo[d]thiazol-2-yl)amino)methyl)benzoic acid], below 1000 nM. On to `CCC(CC)C(c1ccc2nc(-c3ccc(C(=O)O)cc3)sc2c1)n1ccnc1` (stereo not drawn) [Example 30, 4-(6-(2-Ethyl-1-(1H-imidazol-1-yl)butyl)benzo[d]thiazol-2-yl)benzoic acid], for which the IC50 is below 1000 nM. `CCC(C(c1ccc2nc(-c3ccc(C(=O)OC)cc3)sc2c1)n1ccnc1)N(C)C` (stereo not drawn) [Example 25, Methyl 4-(6-(2-(dimethylamino)-1-(1H-imidazol-1-yl)butyl)benzo[d]thiazol-2-yl)benzoate]: the IC50 is below 1000 nM.

With `CCC(CC)C(c1ccc2nc(-c3ccc(Cl)c(C(=O)OC)c3)sc2c1)n1ccnc1` (stereo not drawn) [Example 73, Methyl 2-chloro-5-(6-(2-ethyl-1-(1H-imidazol-1-yl)butyl)benzo[d]thiazol-2-yl)benzoate], the IC50 was below 1000 nM. `CCC(C(c1ccc2nc(NC(=O)C3(C(=O)O)CCCC3)sc2c1)n1ccnc1)N(C)C` (stereo not drawn) [Example 47, 1-((6-(2-(Dimethylamino)-1-(1H-imidazol-1-yl)butyl)benzo[d]thiazol-2-yl)carbamoyl)cyclopentanecarboxylic acid] yielded an IC50 below 1000 nM. Next, `CCC(C(c1ccc2nc(-c3ccc(F)c(C(=O)O)c3)sc2c1)n1ccnc1)N(C)C` (stereo not drawn) [Example 66, 5-(6-(2-(Dimethylamino)-1-(1H-imidazol-1-yl)butyl)benzo[d]thiazol-2-yl)-2-fluorobenzoic acid]: below 1000 nM; `CCC(C(c1ccc2nc(NC(=O)c3ccc(C(=O)O)cc3)sc2c1)n1ccnc1)N(C)C` (stereo not drawn) [Example 22, 4-((6-(2-(dimethylamino)-1-(1H-imidazol-1-yl)butyl)benzo[d]thiazol-2-yl)carbamoyl)benzoic acid]: below 1000 nM; `CCC(CC)C(c1ccc2nc(-c3cccc(C(=O)O)c3)sc2c1)n1ccnc1` (stereo not drawn) [3-(6-(2-Ethyl-1-(1H-imidazol-1-yl)butyl)benzo[d]thiazol-2-yl)benzoic acid]: below 1000 nM. Next, `CCC(C(c1ccc2nc(NCc3ccc(C(=O)O)cc3)sc2c1)n1ccnc1)N(C)C` (stereo not drawn) [Example 35, 4-(((6-(2-(Dimethylamino)-1-(1H-imidazol-1-yl)butyl)benzo[d]thiazol-2-yl)amino)methyl)benzoic acid]: below 1000 nM; `CCC(C(c1ccc2nc(Nc3cccc(C(=O)O)c3)sc2c1)n1ccnc1)N(C)C` (stereo not drawn) [Example 39, 3-((6-(2-(dimethylamino)-1-(1H-imidazol-1-yl)butyl)benzo[d]thiazol-2-yl)amino)benzoic acid]: below 1000 nM; `CCC(C(c1ccc2nc(NC(=O)c3cccc(C(=O)O)c3)sc2c1)n1ccnc1)N(C)C` (stereo not drawn) [Example 41, 3-((6-(2-(dimethylamino)-1-(1H-imidazol-1-yl)butyl)benzo[d]thiazol-2-yl)carbamoyl)benzoic acid]: below 1000 nM. `CCC(C(c1ccc2nc(NC(=O)C3(C(=O)O)CCCCC3)sc2c1)n1ccnc1)N(C)C` (stereo not drawn) [Example 45, 1-((6-(2-(Dimethylamino)-1-(1H-imidazol-1-yl)butyl)benzo[d]thiazol-2-yl)carbamoyl)cyclohexanecarboxylic acid]: the IC50 was below 1000 nM. In the case of `CCC(C(c1ccc2nc(-c3cccc(C(=O)O)c3)sc2c1)n1ccnc1)N(C)CC` (stereo not drawn) [Example 60, 3-(6-(2-(Ethyl(methyl)amino)-1-(1H-imidazol-1-yl)butyl)benzo[d]thiazol-2-yl)benzoic acid], the IC50 is below 1000 nM. As for `CCC(C(c1ccc2nc(Oc3ccc(C(=O)O)cc3)sc2c1)n1ccnc1)N(C)C` (stereo not drawn) [Example 24, 4-((6-(2-(Dimethylamino)-1-(1H-imidazol-1-yl)butyl)benzo[d]thiazol-2-yl)oxy)benzoic acid], the IC50 is below 1000 nM. The molecule `CCC(C(c1ccc2nc(-c3ccc(Cl)c(C(=O)O)c3)sc2c1)n1ccnc1)N(C)C` (stereo not drawn) [Example 64, 2-Chloro-5-(6-(2-(dimethylamino)-1-(1H-imidazol-1-yl)butyl)benzo[d]thiazol-2-yl)benzoic acid] had an IC50 below 1000 nM. The molecule `CCC(CC)C(c1ccc2nc(-c3ccc(C(=O)OC)cc3)sc2c1)n1ccnc1` (stereo not drawn) [Example 29, Methyl 4-(6-(2-ethyl-1-(1H-imidazol-1-yl)butyl)benzo[d]thiazol-2-yl)benzoate] displayed an IC50 below 1000 nM. Consider `CCC(C(c1ccc2nc(-c3cccc(-c4nn[nH]n4)c3)sc2c1)n1ccnc1)N(C)C` (stereo not drawn) [Example 71, 1-(2-(3-(2H-Tetrazol-5-yl)phenyl)benzo[d]thiazol-6-yl)-1-(1H-imidazol-1-yl)-N,N-dimethylbutan-2-amine], for which the 50% inhibitory concentration (IC50) is below 1000 nM. Take `CCC(C(c1ccc2nc(NC(=O)CCC(C)(C)C(=O)O)sc2c1)n1ccnc1)N(C)C` (stereo not drawn) [Example 49, 5-((6-(-2-(Dimethylamino)-1-(1H-imidazol-1-yl)butyl)benzo[d]thiazol-2-yl)amino)-2,2-dimethyl-5-oxopentanoic acid]: the IC50 is below 1000 nM. Turning to `CCC(C(c1ccc2nc(-c3ccc(C(=O)O)cc3)sc2c1)n1ccnc1)N(C)C` (stereo not drawn) [Example 26, 4-(6-(2-(Dimethylamino)-1-(1H-imidazol-1-yl)butyl)benzo[d]thiazol-2-yl)benzoic acid], the IC50 is below 1000 nM.

For `CCC(C(c1ccc2nc(Nc3ccc(C(=O)O)cc3)sc2c1)n1ccnc1)N(C)C` (stereo not drawn) [Example 17, 4-((6-(2-(Dimethylamino)-1-(1H-imidazol-1-yl)butyl)benzo[d]thiazol-2-yl)amino)benzoic acid], the IC50 was below 1000 nM. As for `CCC(C(c1ccc2nc(NC(=O)CC(C)(C)C(=O)O)sc2c1)n1ccnc1)N(C)C` (stereo not drawn) [Example 20, 4-((6-(-2-(dimethylamino)-1-(1H-imidazol-1-yl)butyl)benzo[d]thiazol-2-yl)amino)-2,2-dimethyl-4-oxobutanoic acid], the figure is below 1000 nM; as for `CCC(C(c1ccc2nc(-c3ccc(-c4nn[nH]n4)cc3)sc2c1)n1ccnc1)N(C)C` (stereo not drawn) [Example 72, 1-(2-(4-(2H-Tetrazol-5-yl)phenyl)benzo[d]thiazol-6-yl)-1-(1H-imidazol-1-yl)-N,N-dimethylbutan-2-amine], below 1000 nM; as for `CCC(C(c1ccc2nc(NCC(C)(C)C(=O)O)sc2c1)n1ccnc1)N(C)C` (stereo not drawn) [Example 19, 3-((6-(2-(Dimethylamino)-1-(1H-imidazol-1-yl)butyl)benzo[d]thiazol-2-yl)amino)-2,2-dimethylpropanoic acid], below 1000 nM.
